The record followed here is patent publication US10144730B2, “Inhibitors of c-Jun-N-terminal kinase (JNK)” (Dana-Farber Cancer Institute, Inc., priority 2011, dated 2018).

Some results are limits rather than exact numbers.

In one assay the test system is c-Jun phosphorylation. The assay can be described thus: Western blot of anisomycin-stimulated phosphorylation in HEK293-IL1R cells. The format is cell-based. Here is the method:
FIGS. 16A and 16B depict Western blot results. […] Cell lysates were prepared, resolved by SDS-PAGE, and p-c-Jun (Ser63) and p-JNK were monitored by Western blot.
HEK-293 cells stably expressing Interleukin Receptor 1 (HEK293-IL1R) were cultured in Dulbecco's Modified Eagle's medium (DMEM) supplemented with 10% FBS, 2 mM glutamine and 1× antimycotic/antibiotic solution. Cells were serum starved for 18 h before incubation with DMSO or different inhibitors, stimulated with 2 μM anisomycin (Sigma) for 1 h, and lysates were clarified by centrifugation for 10 min at 16000 g and 4° C.
Rabbit polyclonal antibodies against total pan JNK isoforms ((#9252), phospho-pan JNK isoforms (Thr183/Tyr185), (#4668), total p38 (#9212) or phospho-p38 MAPK (Thr180/Tyr182), (4631 resp.), total c-Jun (#9165), phospho-c-Jun (Ser63) (#9261), and phospho-MSK1 (Ser376) (#9591) were from Cell Signalling technology.
Cell lysates (30 μg) were resolved by electrophoresis on SDS polyacrylamide gels (10%) or Novex 4-12% gradient gels, and electroblotted to nitrocellulose membranes. Membranes were blocked with 5% skimmed milk (w/v) in 50 mM Tris/HCl (pH 7.5) 0.15 M NaCl, and 0.1% (v/v) Tween (TBST Buffer). Primary antibodies were used at a concentration of 1 μg/ml, diluted in 5% skimmed milk in TBST, and incubated overnight at 4° C. […]

For assay [1], the target named is additional kinase targets. The assay can be described thus: Follow-up enzymatic IC50 or Kd on potential additional kinase targets. The following applies: further biochemical and binding assays. The text has this:
Scores were obtained from the profiling against a […] using Kinome Scan™ technology as illustrated in FIG. 11.
To complement the KiNativ profiling, the in vitro kinase selectivity of several key compounds was comprehensively evaluated by two complementary approaches: a kinase-binding assays against a panel of 442 distinct kinases using the KINOMEscan methodology (DiscoverX) and a standard radioactivity-based enzymatic assays against a panel of 124 kinases (The National Centre for Protein Kinase Profiling in Dundee). […] It was attempted to confirm all these potent binding targets using either an enzymatic kinase assay or through the measurement of a dissociation constant to the kinase in question.

The target of the next assay is JNK1 (Homo sapiens, UniProt P45983). Put plainly: Biochemical JNK1 kinase inhibition (Z'-lyte format). The following applies: Table 2.
The target of the next assay is IRAK1 (Homo sapiens, UniProt P51617). Put plainly: IRAK1 biochemical kinase assay. As to conditions: biochemical / follow-up enzymatic assay; read-out: IC50 against IRAK1.
Assay [2] deals with panel of 442 distinct kinases. Put plainly: KINOMEscan kinase-binding panel. As to conditions: screening concentration of 1 μM.
For another assay, the target named is AKT2 (Homo sapiens, UniProt P31751). Put plainly: AKT2 follow-up enzymatic assay. As to conditions: follow-up enzymatic assay (FIG. 12). In kind it is biochemical. From the text:
(§1) This high in vitro selectivity however differed markedly from the large number of targets detected by KiNativ.

A further assay addresses T1, HIPK4 (Homo sapiens, UniProt Q8NE63).
T1 sequence (Q8NE63 1-616): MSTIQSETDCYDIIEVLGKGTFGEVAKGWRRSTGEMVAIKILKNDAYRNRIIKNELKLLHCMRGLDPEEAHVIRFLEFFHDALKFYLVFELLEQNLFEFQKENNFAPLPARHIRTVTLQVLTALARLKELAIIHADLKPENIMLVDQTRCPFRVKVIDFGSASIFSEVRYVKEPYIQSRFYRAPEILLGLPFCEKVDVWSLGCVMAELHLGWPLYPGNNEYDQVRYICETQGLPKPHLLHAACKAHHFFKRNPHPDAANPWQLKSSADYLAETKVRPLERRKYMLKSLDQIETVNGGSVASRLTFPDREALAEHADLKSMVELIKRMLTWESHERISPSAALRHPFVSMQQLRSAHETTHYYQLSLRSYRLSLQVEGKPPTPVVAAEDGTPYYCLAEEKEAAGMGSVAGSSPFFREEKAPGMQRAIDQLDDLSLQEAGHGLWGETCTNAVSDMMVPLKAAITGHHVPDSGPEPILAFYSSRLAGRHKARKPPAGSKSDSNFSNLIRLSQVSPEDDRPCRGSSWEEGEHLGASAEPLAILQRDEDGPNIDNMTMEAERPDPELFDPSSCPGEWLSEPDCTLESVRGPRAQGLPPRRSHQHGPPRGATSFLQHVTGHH
The assay can be described thus: HIPK4 follow-up enzymatic assay. The following applies: follow-up enzymatic assay (FIG. 12). The format is biochemical.
From the text: as §1

The target of the next assay is JNK2 (Homo sapiens, UniProt P45984). Put plainly: Biochemical JNK2 kinase inhibition (Z'-lyte format). As to conditions: Table 2.
JNK2, sequence (P45984 whole entry): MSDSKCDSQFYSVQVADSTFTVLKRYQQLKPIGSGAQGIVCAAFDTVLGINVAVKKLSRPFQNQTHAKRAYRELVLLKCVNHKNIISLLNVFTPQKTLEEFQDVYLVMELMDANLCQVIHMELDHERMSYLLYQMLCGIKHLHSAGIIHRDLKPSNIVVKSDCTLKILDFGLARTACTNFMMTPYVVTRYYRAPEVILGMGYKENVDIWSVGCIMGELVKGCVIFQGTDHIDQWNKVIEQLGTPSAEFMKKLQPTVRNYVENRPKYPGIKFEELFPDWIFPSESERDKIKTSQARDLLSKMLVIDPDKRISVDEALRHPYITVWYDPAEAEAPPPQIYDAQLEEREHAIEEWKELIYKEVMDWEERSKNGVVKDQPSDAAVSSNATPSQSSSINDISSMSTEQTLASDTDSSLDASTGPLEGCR

AKT2, sequence (P31751 whole entry, species assumed): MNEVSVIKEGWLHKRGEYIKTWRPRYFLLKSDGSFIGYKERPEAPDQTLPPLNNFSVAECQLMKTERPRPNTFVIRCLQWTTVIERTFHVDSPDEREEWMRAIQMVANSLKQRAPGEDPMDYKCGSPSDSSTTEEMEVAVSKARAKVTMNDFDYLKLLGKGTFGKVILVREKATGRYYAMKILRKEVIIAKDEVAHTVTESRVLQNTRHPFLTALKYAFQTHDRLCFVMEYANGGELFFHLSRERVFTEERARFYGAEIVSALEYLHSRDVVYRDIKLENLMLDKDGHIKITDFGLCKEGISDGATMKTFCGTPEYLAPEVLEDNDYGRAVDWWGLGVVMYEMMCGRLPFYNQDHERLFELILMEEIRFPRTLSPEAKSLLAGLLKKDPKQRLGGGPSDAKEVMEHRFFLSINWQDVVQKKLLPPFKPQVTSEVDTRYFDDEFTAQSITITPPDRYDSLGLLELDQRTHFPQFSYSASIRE
JNK1, sequence (P45983 whole entry): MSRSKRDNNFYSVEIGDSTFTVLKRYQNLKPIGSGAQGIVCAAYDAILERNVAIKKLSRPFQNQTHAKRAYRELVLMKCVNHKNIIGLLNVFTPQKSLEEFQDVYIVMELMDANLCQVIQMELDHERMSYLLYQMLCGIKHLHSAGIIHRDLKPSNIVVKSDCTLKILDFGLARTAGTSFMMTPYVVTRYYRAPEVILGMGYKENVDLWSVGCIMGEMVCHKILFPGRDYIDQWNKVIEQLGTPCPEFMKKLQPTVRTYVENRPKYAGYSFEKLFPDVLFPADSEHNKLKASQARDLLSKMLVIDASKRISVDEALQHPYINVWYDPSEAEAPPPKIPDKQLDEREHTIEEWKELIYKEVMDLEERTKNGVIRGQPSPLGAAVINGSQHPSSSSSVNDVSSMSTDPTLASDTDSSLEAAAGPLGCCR
IRAK1, sequence (P51617 whole entry): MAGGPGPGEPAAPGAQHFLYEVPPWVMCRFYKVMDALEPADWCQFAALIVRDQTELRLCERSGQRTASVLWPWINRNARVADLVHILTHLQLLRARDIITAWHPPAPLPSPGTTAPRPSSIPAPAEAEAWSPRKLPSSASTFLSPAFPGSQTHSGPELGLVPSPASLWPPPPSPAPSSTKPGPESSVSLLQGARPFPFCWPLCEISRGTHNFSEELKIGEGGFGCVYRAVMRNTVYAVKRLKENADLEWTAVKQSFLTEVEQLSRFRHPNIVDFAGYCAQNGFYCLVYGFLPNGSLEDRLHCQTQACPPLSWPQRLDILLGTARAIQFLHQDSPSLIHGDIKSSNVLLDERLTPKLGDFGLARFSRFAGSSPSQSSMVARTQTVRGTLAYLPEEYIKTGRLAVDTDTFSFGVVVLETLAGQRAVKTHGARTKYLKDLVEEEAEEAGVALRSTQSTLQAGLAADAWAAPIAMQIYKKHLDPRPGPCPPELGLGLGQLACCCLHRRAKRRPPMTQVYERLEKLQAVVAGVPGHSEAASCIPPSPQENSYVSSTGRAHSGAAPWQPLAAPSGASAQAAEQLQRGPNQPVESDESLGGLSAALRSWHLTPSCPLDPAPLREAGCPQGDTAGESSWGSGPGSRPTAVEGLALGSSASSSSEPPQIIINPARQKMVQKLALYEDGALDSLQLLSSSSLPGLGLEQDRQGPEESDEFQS

Consider `Cc1cc(NC(=O)c2cccc(NC(=O)/C=C/CN(C)C)c2)ccc1Nc1nccc(-c2cccnc2)n1` [JNK-IN-8], for which the “time for inhibition of JNK in cells to reach completion” value in the assay on c-Jun phosphorylation (HEK293-ILR1 cells (FIGS. 16A and 16B)) was “approximately 3 hours”. Also, the “reversal of inhibition of c-Jun phosphorylation after removal of inhibitor (washout)” value in the assay on c-Jun phosphorylation (HEK293-ILR1 cells, three hours treatment then washout) is given as “not reversed”. Moreover, the “IC50 or Kd of any further target” value in assay [1] was at least 1000 nM.
As usually defined, the IC50 is the concentration at which inhibition is half-maximal. For `CN(C)C/C=C/C(=O)Nc1cccc(C(=O)Nc2ccc(Nc3nccc(/C(C#N)=C4\Nc5ccccc5S4)n3)cc2)c1` [JNK-IN-12], the IC50 on JNK1 is 13 nM; at IRAK1, 37.6 nM; on AKT2 it was 89.9 nM; on HIPK4 it was 57.1 nM; against JNK2, 11.3 nM. Moreover, the “KINOMEscan S score (ratio number of kinases inhibited more than 90 percent)” value in assay [2] is given as 0.025.
